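Dose response: 5 concentrations. Exposure: 48 h. Format: 96-well plates. Endpoint: linear interpolation; highest concentration if not reached. GI50: concentration for 50% inhibition of growth. TGI is the concentration that stops growth completely.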
How the values were obtained:
Experiment in all cases: growth of human tumour cells (NCI), 48 h
NCI/ADR-RES ovarian = tested on: NCI/ADR-RES ovarian
OVCAR-3 ovarian = tested on: OVCAR-3 ovarian
HOP-62 NSCLC = tested on: HOP-62 NSCLC
EKVX NSCLC = tested on: EKVX NSCLC
CCRF-CEM leukemia = tested on: CCRF-CEM leukemia
HCT-116 colon = tested on: HCT-116 colon
SN12C renal = tested on: SN12C renal
HS 578T breast = tested on: HS 578T breast
HT29 colon = tested on: HT29 colon
RXF 393 renal = tested on: RXF 393 renal

Structure (SMILES): O=C(O)c1ccc(N/C(=C(/C(Cl)=C(Cl)Cl)[N+](=O)[O-])n2nnc3ccccc32)cc1
- TGI (NCI/ADR-RES ovarian): > 100 µM
- TGI (OVCAR-3 ovarian): > 100 µM
- TGI (HOP-62 NSCLC): > 100 µM
- TGI (EKVX NSCLC): > 100 µM
- TGI (CCRF-CEM leukemia): > 100 µM
- TGI (HCT-116 colon): > 100 µM
- TGI (SN12C renal): > 100 µM
- TGI (HS 578T breast): > 100 µM
- TGI (HT29 colon): > 100 µM

Structure (SMILES): c1cc2c(cc1C1=NCCN1)c1cc(C3=NCCN3)ccc1n2CC1CCCCC1
- TGI (RXF 393 renal): > 100 µM
- TGI (NCI/ADR-RES ovarian): > 100 µM
- TGI (OVCAR-3 ovarian): > 100 µM
- TGI (HOP-62 NSCLC): 94.8 µM
- TGI (EKVX NSCLC): 69.2 µM
- TGI (CCRF-CEM leukemia): 50.2 µM
- TGI (HCT-116 colon): 51.1 µM
- TGI (SN12C renal): 80.1 µM
- TGI (HS 578T breast): 32 µM
- TGI (HT29 colon): > 100 µM

Structure (SMILES): O=C(N/N=C\c1ccc([N+](=O)[O-])s1)c1ccncc1
- TGI (RXF 393 renal): 56.6 µM
- TGI (NCI/ADR-RES ovarian): > 91.1 µM
- TGI (OVCAR-3 ovarian): 8.06 µM
- TGI (HOP-62 NSCLC): 35.3 µM
- TGI (EKVX NSCLC): 45.6 µM
- TGI (CCRF-CEM leukemia): > 29.1 µM
- TGI (HCT-116 colon): 19.5 µM
- TGI (SN12C renal): 26.8 µM
- TGI (HS 578T breast): 50.4 µM
- TGI (HT29 colon): 15.9 µM

Structure (SMILES): NN/C(=N\S(=O)(=O)c1ccc(S(=O)(=O)c2ccccc2)s1)Nc1ccc(Cl)cc1
- TGI (RXF 393 renal): 47.6 µM
- TGI (NCI/ADR-RES ovarian): > 100 µM
- TGI (OVCAR-3 ovarian): 72.2 µM
- TGI (HOP-62 NSCLC): > 100 µM
- TGI (EKVX NSCLC): 50.4 µM
- TGI (HCT-116 colon): 32.5 µM
- TGI (SN12C renal): 77.8 µM
- TGI (HT29 colon): 65.4 µM

Structure (SMILES): CCOC(=O)CCC(NC(=O)c1ccc(Nc2nc3ccccc3nc2C(=O)OCC)cc1)C(=O)OCC (stereo not drawn)
- TGI (NCI/ADR-RES ovarian): 27 µM
- TGI (OVCAR-3 ovarian): 4.73 µM
- TGI (HOP-62 NSCLC): 12.4 µM
- TGI (EKVX NSCLC): 40.1 µM
- TGI (CCRF-CEM leukemia): > 100 µM
- TGI (HCT-116 colon): 8.6 µM
- TGI (SN12C renal): > 40.7 µM
- TGI (HS 578T breast): 21.7 µM
- TGI (HT29 colon): > 89.7 µM

Structure (SMILES): C=C(C)[C@@H]1CC[C@]2(C(=O)NC(C)=O)CC[C@]3(C)[C@H](CC[C@@H]4[C@@]5(C)CCCNC(C)(C)[C@@H]5CC[C@]43C)[C@@H]12
- GI50 (RXF 393 renal): 1.76 µM
- TGI (RXF 393 renal): 3.26 µM
- GI50 (NCI/ADR-RES ovarian): 1.83 µM
- TGI (NCI/ADR-RES ovarian): 3.68 µM
- GI50 (OVCAR-3 ovarian): 1.59 µM
- TGI (OVCAR-3 ovarian): 3.04 µM
- GI50 (EKVX NSCLC): 1.6 µM
- TGI (EKVX NSCLC): 3.23 µM
- GI50 (CCRF-CEM leukemia): 1.65 µM
- TGI (CCRF-CEM leukemia): 4.55 µM
- GI50 (SN12C renal): 1.47 µM
- TGI (SN12C renal): 2.79 µM
- GI50 (HT29 colon): 1.21 µM
- TGI (HT29 colon): 3.06 µM

Structure (SMILES): Cc1cc2ccc(N)nc2[nH]c1=O
- TGI (RXF 393 renal): > 100 µM
- TGI (NCI/ADR-RES ovarian): > 100 µM
- TGI (EKVX NSCLC): > 100 µM
- TGI (HCT-116 colon): > 100 µM
- TGI (SN12C renal): > 100 µM
- TGI (HS 578T breast): > 100 µM
- TGI (HT29 colon): > 100 µM

Structure (SMILES): Cc1c(O)c(=O)ccn1CCc1ccc(O)cc1
- TGI (NCI/ADR-RES ovarian): 59.5 µM
- TGI (OVCAR-3 ovarian): 63.4 µM
- TGI (HOP-62 NSCLC): > 100 µM
- TGI (EKVX NSCLC): 93.3 µM
- TGI (CCRF-CEM leukemia): 42 µM
- TGI (HCT-116 colon): > 100 µM
- TGI (HS 578T breast): 69.6 µM
- TGI (HT29 colon): > 100 µM

Structure (SMILES): COc1ccc(-n2cnc3c(NC(Cc4ccccc4)C(=O)O)ncnc32)cc1 (stereo not drawn)
- TGI (NCI/ADR-RES ovarian): > 100 µM
- TGI (OVCAR-3 ovarian): > 100 µM
- TGI (HOP-62 NSCLC): > 100 µM
- TGI (EKVX NSCLC): > 100 µM
- TGI (CCRF-CEM leukemia): > 100 µM
- TGI (HCT-116 colon): > 100 µM
- TGI (SN12C renal): > 100 µM
- TGI (HS 578T breast): > 100 µM
- TGI (HT29 colon): > 100 µM

Structure (SMILES): C=CCNC(=S)/N=C/C(C(=O)Nc1ccccc1C)=C(\C)O
- TGI (RXF 393 renal): > 100 µM
- TGI (NCI/ADR-RES ovarian): > 100 µM
- TGI (OVCAR-3 ovarian): > 100 µM
- TGI (HOP-62 NSCLC): > 100 µM
- TGI (EKVX NSCLC): > 100 µM
- TGI (HCT-116 colon): > 100 µM
- TGI (SN12C renal): > 100 µM
- TGI (HS 578T breast): > 100 µM
- TGI (HT29 colon): > 100 µM

Reference: PubChem BioAssay (NCI)
